{"source": "paper PMC10985226", "about": "“A tangible method to assess native ferroptosis suppressor activity” (Cell Reports Methods, 2024)", "molecular_target": "T1, Glutathione peroxidase 4 (Strep-hGPX4) (Homo sapiens, UniProt P36969)", "T1 construct": "gene GPX4", "T1 sequence (P36969 28-197)": "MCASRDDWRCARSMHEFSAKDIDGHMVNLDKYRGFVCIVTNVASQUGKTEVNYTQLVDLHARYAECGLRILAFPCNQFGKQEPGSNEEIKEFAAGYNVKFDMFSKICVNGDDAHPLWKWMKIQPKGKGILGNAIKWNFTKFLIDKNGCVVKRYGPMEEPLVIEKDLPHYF", "assay": "substrate turnover by isolated hGPX4, NADPH-coupled assay", "assay_type": "biochemical", "data": [{"smiles": "CC(C)(OO)c1ccccc1", "note": "[cumeneOOH, cumene hydroperoxide]", "values": [{"measurement": "substrate turnover by isolated hGPX4, NADPH-coupled assay", "result": "All hydroperoxides except for H2O2 afforded the GPX4-dependent NADPH consumption in the assay system"}]}, {"smiles": "CC(C)(C)OO", "note": "[tBuOOH, tert-butyl hydroperoxide]", "values": [{"measurement": "substrate turnover by isolated hGPX4, NADPH-coupled assay", "result": "All hydroperoxides except for H2O2 afforded the GPX4-dependent NADPH consumption in the assay system"}]}]}
